Reference: patent US7056707B2, “Bioactive compound and its isolation and method of treatment for lipoxygenase inhibition and as free radical scavenging agent” (Council of Scientific and Industrial Research, priority 2002, dated 2006)
“Also recorded” adds a separate entry of the source.

Columns and labels:
Solubility in solvents = type: physicochemical
Description: The compound is amorphous yellow powder.

[1] = target: T1, crude rat lens aldose reductase (Rattus norvegicus, UniProt P07943); test: Rat lens aldose reductase inhibition, decrease in absorbance at 340 nm; type: biochemical; conditions: as stated in embodiment b50; read-out: IC50 against crude rat lens aldose reductase
T1 construct: from tissue; host or cells: rat eye lens homogenate, 10,000 r.p.m. supernatant
Description: Lens are collected from rat eyes and homogenised with sodium, potassium phosphate buffer (0.135 M, pH 7.0) containing 0.5 mM of phenyl methyl sulphonyl fluoride and 10 mM of p-mercaptoethanol. The homogenate is centrifuged at 10,000 r.p.m for 30 minutes at 4° C. The supernatant is taken as enzyme source. Enzyme reaction is carried out at 25° C. in a quartz cuvette with a 1-cm light path. The assay mixture contained 100 μL of nicotinamide adenine dinucleotide phosphate tetra sodium salt (from a stock solution of 9.6 mM), 100 μL of DL-glyceraldehyde (from a stock solution of 250 mM), 10 μL of inhibitor dissolved in dimethyl sulphoxide, sodium-potassium-phosphate buffer (0.135 M, pH 7.0) to make up the total volume to […] and the reaction is initiated by the addition of 200 μL of enzyme solution. The enzyme reaction is monitored by the decrease in absorbency at 340 nm and compared with enzyme reaction without inhibitor.

[2] = target: T2, purified soybean lipoxygenase (LOX-1) (Glycine max, UniProt P08170); test: Soybean lipoxygenase (LOX-1) inhibition, absorbance at 234 nm; type: biochemical; conditions: as stated in embodiment b50; read-out: IC50 against purified soybean lipoxygenase
T2 construct: Soybean lipoxygenase (LOX-1) is purified according to the method of Axelrod et al; from tissue; host or cells: soybean seeds (Hardee variety), dehulled and defatted
T2 sequence (P08170 1-839): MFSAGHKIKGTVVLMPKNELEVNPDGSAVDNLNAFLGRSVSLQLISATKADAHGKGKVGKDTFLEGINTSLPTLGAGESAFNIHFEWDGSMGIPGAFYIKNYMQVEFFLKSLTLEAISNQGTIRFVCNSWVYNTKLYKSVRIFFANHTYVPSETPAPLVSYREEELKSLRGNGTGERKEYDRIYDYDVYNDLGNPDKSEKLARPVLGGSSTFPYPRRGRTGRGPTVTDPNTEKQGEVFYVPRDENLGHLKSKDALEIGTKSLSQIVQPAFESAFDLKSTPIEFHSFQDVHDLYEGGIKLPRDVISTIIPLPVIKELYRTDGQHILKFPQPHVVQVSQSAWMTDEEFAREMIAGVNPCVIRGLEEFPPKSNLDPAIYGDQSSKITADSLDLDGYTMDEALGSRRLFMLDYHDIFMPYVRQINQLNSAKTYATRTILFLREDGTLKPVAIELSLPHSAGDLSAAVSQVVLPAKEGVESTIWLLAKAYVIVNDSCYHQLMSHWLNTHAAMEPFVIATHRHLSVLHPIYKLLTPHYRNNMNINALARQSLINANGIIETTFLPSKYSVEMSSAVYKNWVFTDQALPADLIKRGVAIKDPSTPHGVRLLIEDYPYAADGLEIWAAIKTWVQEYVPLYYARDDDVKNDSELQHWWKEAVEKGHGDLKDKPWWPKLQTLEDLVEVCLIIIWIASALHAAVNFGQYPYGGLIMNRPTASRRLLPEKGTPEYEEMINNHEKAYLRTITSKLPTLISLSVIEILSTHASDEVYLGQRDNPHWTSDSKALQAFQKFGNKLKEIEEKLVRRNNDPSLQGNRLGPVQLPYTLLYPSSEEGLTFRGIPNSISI
Description: Soybean lipoxygenase (LOX-1) is purified according to the method of Axelrod et al., lipoxygenase from soybeans. Methods in Enzymology 1981, 71, 441–451, using the Hardee variety of soybean, after dehulling and defatting by hexane. The substrate, sodium linoleate (10 mM) is prepared as follows:
To 70 mg of linoleic acid an equal weight of Tween-20 and 4 ml of oxygen free water is added and homogenized by drawing back and forth in a pasture pipette, avoiding air bubbles. Sufficient quantity of 0.5 N NaOH is added to this to yield a clear solution. The resulting sodium linoleate is divided into 1–2 mL portions in small screw cap vials, flushed with N2 before closing, and keep frozen until needed. Enzyme reaction is carried out at 25° C. in a quartz cuvette with a 1 cm light path. The assay mixture contained (2.975−x) ml of borate buffer (0.2 M, pH 9.0), 0.025 ml of sodium linoleate substrate, and x mL of enzyme. After each addition the mixture is stirred with a few strokes of a plastic paddler. The reference cuvette contained no enzyme. Absorption at 234 nm is recorded, and the reaction rate is determined from the slope of the straight-line portion of the curve.

solubility in organic solvents (Solubility in solvents; ethanol, methanol, ethyl acetate, dimethyl sulphoxide): soluble | solubility in aqueous alkaline solution (Solubility in solvents; sodium bicarbonate, sodium carbonate, sodium hydroxide solution (b24 also potassium bicarbonate, potassium carbonate, lithium hydroxide, potassium hydroxide)): soluble | solubility in water (Solubility in solvents; water): insoluble | IC50 [1]: 69 µM | IC50 [2]: 79 µM
SMILES: C/C=C/c1c(C)c(OC)c(C(=O)O)c(C(N)=O)c1O [compound 1, 2-amido, 3-hydroxy, 4-propene, 5-methyl, 6-methoxy benzoic acid]
solubility in chloroform and hexane (Solubility in solvents; chloroform, hexane): sparingly soluble; also recorded: slightly soluble
